Like-named read-outs stand apart in the source and are kept apart here.
How the values were obtained:
[1] = ether bond, 2.0 h
TRKA^WT kinase = TRKA^WT kinase (Homo sapiens (Human), UniProt P04629); assay: Inhibitory activity against TRKA WT kinase (Caliper mobility shift); assay type: biochemical; conditions: in vitro kinase assay
Summary of the method: (§1)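 Kinase preincubated 10 min at room temperature with compound (10-point 3-fold series from 1000 nM), then reaction started with ATP and Kinase Substrate 22. Substrate conversion read by Caliper mobility shift; IC50 from variable-slope log(inhibitor)–response fit of % inhibition versus no-enzyme and no-compound controls.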

TRKA^F589L kinase = TRKA^F589L kinase (Homo sapiens (Human), UniProt P04629, F589L); assay: Inhibitory activity against TRKA(F589L) kinase (Caliper mobility shift); assay type: biochemical; conditions: in vitro kinase assay
Chain of TRKA^F589L kinase (P04629 33-796 F589L): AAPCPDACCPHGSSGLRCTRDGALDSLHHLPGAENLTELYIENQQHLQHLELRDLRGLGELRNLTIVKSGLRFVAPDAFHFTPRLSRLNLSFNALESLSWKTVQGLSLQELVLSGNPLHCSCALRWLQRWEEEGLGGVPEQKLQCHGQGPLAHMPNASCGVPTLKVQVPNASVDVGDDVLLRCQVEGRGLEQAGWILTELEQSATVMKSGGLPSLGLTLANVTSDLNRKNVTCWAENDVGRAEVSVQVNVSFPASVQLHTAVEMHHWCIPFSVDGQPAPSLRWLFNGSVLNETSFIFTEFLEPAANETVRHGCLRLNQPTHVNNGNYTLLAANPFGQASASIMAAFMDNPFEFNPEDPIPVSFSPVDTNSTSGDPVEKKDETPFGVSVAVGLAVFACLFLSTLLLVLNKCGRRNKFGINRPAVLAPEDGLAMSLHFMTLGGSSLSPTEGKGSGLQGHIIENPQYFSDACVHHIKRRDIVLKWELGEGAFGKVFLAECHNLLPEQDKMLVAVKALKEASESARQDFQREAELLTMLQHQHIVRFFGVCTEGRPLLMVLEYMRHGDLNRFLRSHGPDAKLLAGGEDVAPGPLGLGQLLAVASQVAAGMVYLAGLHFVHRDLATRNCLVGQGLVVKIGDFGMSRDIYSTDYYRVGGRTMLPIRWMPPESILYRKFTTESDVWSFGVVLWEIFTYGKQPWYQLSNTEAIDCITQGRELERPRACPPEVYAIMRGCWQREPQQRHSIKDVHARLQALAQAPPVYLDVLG
Summary of the method: as §1

[2] = test system: Ba/F3-TPM3-NTRK1-G667C cells; assay: Growth inhibition of Ba/F3-TPM3-NTRK1-G667C cells (Cell Titer-Glo); assay type: cell-based; conditions: 72 hours, CTG; read-out: inhibitory activity IC50 Ba/F3-TPM3-NTRK1-G667C
Summary of the method: (§2)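 Ba/F3 cells were exposed for 72 hours to serially DMSO-diluted compound at a top final concentration of 10 μM. Viability was read by Cell Titer-Glo luminescence after the plate equilibrated 30 min at room temperature and was then shaken 1 hour in the dark at room temperature.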

[3] = test system: Ba/F3-TPM3-NTRK1-G595R cells; assay: Growth inhibition of Ba/F3-TPM3-NTRK1-G595R cells (Cell Titer-Glo); assay type: cell-based; conditions: 72 hours, CTG; read-out: inhibitory activity IC50 Ba/F3-TPM3-NTRK1-G595R
Summary of the method: as §2

[4] = test system: Ba/F3-TPM3-NTRK1-WT cells; assay: Growth inhibition of Ba/F3-TPM3-NTRK1-WT cells (Cell Titer-Glo); assay type: cell-based; conditions: 72 hours, CTG; read-out: inhibitory activity IC50 Ba/F3-TPM3-NTRK1-WT
Summary of the method: as §2

Chain of TRKA^WT kinase (P04629 33-796): as the sequence (P04629 33-796 F589L) above, with L557F counted along it

IC50 (TRKA^WT kinase)	IC50 (TRKA^F589L kinase)	IC50 [2]	IC50 [3]	IC50 [4]	Compound	ring closure, isolated yield ([1]; from OCc1ccnc(-c2cnc3ccc(NCc4cc(F)ccc4O)nn23)c1, 13-membered ring, SOCl2, K2CO3, DCM/DMF, 20.3 mM, 90.0 °C, 2 steps)	ring closure, isolated yield ([1]; from OCc1ccnc(-c2cnc3ccc(NCc4ccccc4O)nn23)c1, 13-membered ring, SOCl2, K2CO3, DCM/DMF, 22.8 mM, 90.0 °C, 2 steps)	ring closure, isolated yield ([1]; from CC(Nc1ccc2ncc(-c3cncc(CO)c3)n2n1)c1cc(F)ccc1O, 13-membered ring, SOCl2, K2CO3, DCM/DMF, 15.7 mM, 90.0 °C, 2 steps)	ring closure, isolated yield ([1]; from OCCc1ccnc(-c2cnc3ccc(NCc4ccccc4O)nn23)c1, 14-membered ring, PPh3/DIAD, THF, 16.6 mM, 60.0 °C)
1.36 nM	< 5 nM	94 nM	91.5 nM	7.94 nM	Fc1ccc2c(c1)CNc1ccc3ncc(n3n1)-c1cc(ccn1)CO2 [Example I-5, (E)-5^4-fluoro-4-oxa-7-aza-1(3,6)-imidazo[1,2-b]pyridazina-2(2,4)-pyridina-5(1,2)-benzenacycloheptaphane]	11.6%	–	–	–
2.76 nM	6.1 nM	526 nM	527 nM	18 nM	c1ccc2c(c1)CNc1ccc3ncc(n3n1)-c1cc(ccn1)CO2 [Example I-6, (E)-4-oxa-7-aza-1(3,6)-imidazo[1,2-b]pyridazina-2(2,4)-pyridina-5(1,2)-benzenacycloheptaphane]	–	13.6%	–	–
< 3 nM	< 5 nM	220 nM	198 nM	2.8 nM	CC1Nc2ccc3ncc(n3n2)-c2cncc(c2)COc2ccc(F)cc21 (stereo not drawn) [Example I-7, (E)-5^4-fluoro-6-methyl-4-oxa-7-aza-1(3,6)-imidazo[1,2-b]pyridazine-2(3,5)-pyridina-5(1,2)-benzenacycloheptaphane]	–	–	22.6%	–
2.46 nM	< 5 nM	562 nM	562 nM	3.4 nM	c1ccc2c(c1)CNc1ccc3ncc(n3n1)-c1cc(ccn1)CCO2 [Example I-8, (E)-6-oxa-3-aza-2(3,6)-imidazo[1,2-b]pyridazina-1(2,4)-pyridina-5(1,2)-benzenacyclooctaphane]	–	–	–	34%

Source: patent publication US20260028352A1, “MACROCYCLIC IMIDAZO [1,2-B] PYRIDAZINE DERIVATIVE, PREPARATION METHOD THEREFOR, AND USE THEREOF” (SUZHOU LANGRUI BIOPHARMACEUTICAL CO., LTD., priority 2022, published 2026)
